In patent US20060116390A1, “Hepatitis c virus inhibitors” (priority 2003, published 2006):
pIC50: −log10 of the molar value. Where two headings read alike, the source gives them in different places.

Test system: HCV proteins in Rep5.1 cells (replicon cell line)
Assay: Inhibitory activity of HCV: cell-based ELISA in replicon cell line Rep5.1 (decrease of HCV proteins)
Parameters: species or system hepatitis C virus
Conditions: Rep5.1 cells, 72 hours with drug
Method in brief: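 Rep5.1 replicon cells (5000/well, DMEM-10 with 500 μg/ml G418) were given serially diluted drug 4 h after seeding. After 72 h, cells were fixed in methanol/acetone and HCV proteins detected by cell-based ELISA using replicon-specific patient plasma antibodies. IC50 is the concentration giving 50% protein decrease versus the no-drug control.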

[1] = Hepatitis C virus, 72 h, concentration at which 50% of HCV proteins was decreased, Table 2, read-out: IC50
[2] = Hepatitis C virus, 72 h, decrease of HCV proteins measured by HCV antibody, Table 1, read-out: Level (IC50 values classified)

Compound | pIC50 [1] | pIC50 [2] | pIC50 (concentration at which 50% of HCV proteins was decreased, Table 2, read-out: IC50)
COc1ccc(Br)cc1COC(=O)C1=C(C)NC(=S)NC1 [Compound 185, 6-methyl-2-thioxo-1,2,3,4-tetrahydro-pyrimidine-5-carboxylic acid 5-bromo-2-methoxy-benzyl ester] | 6.40 | > 6.00 | –
CC1=C(C(=O)OCc2ccccc2S(C)(=O)=O)CNC(=S)N1 [Compound 112, 6-methyl-2-thioxo-1,2,3,4-tetrahydro-pyrimidine-5-carboxylic acid 2-methanesulfonyl-benzyl ester] | < 4.00 | < 4.70 | –
CC1=C(C(=O)OCc2ccc3nc(C)oc3c2)CNC(=S)N1 [Compound 256, 6-methyl-2-thioxo-1,2,3,4-tetrahydro-pyrimidine-5-carboxylic acid 2-methyl-benzoxazol-6-ylmethyl ester] | 5.47 | 5.00 to 6.00 | –
CCc1ccc(COC(=O)C2=C(C)NC(=S)NC2)cc1 [Compound 152, 6-methyl-2-thioxo-1,2,3,4-tetrahydro-pyrimidine-5-carboxylic acid 4-ethyl-benzyl ester] | 6.30 | > 6.00 | –
CC1=C(C(=O)OCCCc2cccc(OC(F)(F)F)c2)CNC(=S)N1 [Compound 106, 6-methyl-2-thioxo-1,2,3,4-tetrahydro-pyrimidine-5-carboxylic acid 3-(3-trifluoromethoxy-phenyl)-propyl ester] | > 6.40 | > 6.00 | –
CC1=C(C(=O)OCc2cc(C)ccc2C)CNC(=S)N1 [Compound 149, 6-methyl-2-thioxo-1,2,3,4-tetrahydro-pyrimidine-5-carboxylic acid 2,5-dimethyl-benzyl ester] | > 6.40 | > 6.00 | –
COc1ccc(COC(=O)C2=C(C)NC(=S)NC2)c(OC)c1C [Compound 137, 6-methyl-2-thioxo-1,2,3,4-tetrahydro-pyrimidine-5-carboxylic acid 2,4-dimethoxy-3-methyl-benzyl ester] | 5.00 | 5.00 to 6.00 | –
CC1=C(C(=O)OCCc2ccc(Cl)c(C(F)(F)F)c2)C(CO)NC(=S)N1 (stereo not shown) [67″, 4-hydroxymethyl-6-methyl-2-thioxo-1,2,3,4-tetrahydro-pyrimidine-5-carboxylic acid 2-(4-chloro-3-trifluoromethyl-phenyl)-ethyl ester] | > 6.40 | > 6.00 | –
CC1=C(C(=O)OC(C)(C)c2ccccc2)CNC(=S)N1 [Compound 27, 6-methyl-2-thioxo-1,2,3,4-tetrahydro-pyrimidine-5-carboxylic acid 1-methyl-1-phenyl-ethyl ester] | 4.33 | < 4.70 | –
CC1=C(C(=O)OCCCn2c(=O)sc3ccccc32)C(CF)NC(=S)N1 (stereo not shown) [48′, 4-fluoromethyl-6-methyl-2-thioxo-1,2,3,4-tetrahydro-pyrimidine-5-carboxylic acid 3-(2-oxo-benzothiazol-3-yl)-propyl ester] | 4.68 | < 4.70 | –
CC1=C(C(=O)OCCCc2ccsc2)C(CO)NC(=S)N1 (stereo not shown) [6″, 4-hydroxymethyl-6-methyl-2-thioxo-1,2,3,4-tetrahydro-pyrimidine-5-carboxylic acid 3-thiophen-3-yl-propyl ester] | 5.72 | 5.00 to 6.00 | –
CCc1ccc(CCOC(=O)C2=C(C)NC(=S)NC2CF)o1 (stereo not shown) [23′, 4-fluoromethyl-6-methyl-2-thioxo-1,2,3,4-tetrahydro-pyrimidine-5-carboxylic acid 2-(5-ethyl-furan-2-yl)-ethyl ester] | 6.15 | > 6.00 | –
CC1=C(C(=O)OCCc2ccsc2)C(COCc2ccccc2)NC(=S)N1 (stereo not shown) [Compound 272, 4-benzyloxymethyl-6-methyl-2-thioxo-1,2,3,4-tetrahydro-pyrimidine-5-carboxylic acid 2-thiophen-3-yl-ethyl ester] | 4.47 | < 4.70 | –
CC1=C(C(=O)OCc2noc(C)n2)CNC(=S)N1 [30′, 6-methyl-2-thioxo-1,2,3,4-tetrahydro-pyrimidine-5-carboxylic acid 5-methyl-[1,2,4]oxadiazol-3-ylmethyl ester] | < 4.00 | < 4.70 | –
CC1=C(C(=O)OCc2ccccc2C(F)(F)F)C(CF)NC(=S)N1 (stereo not shown) [37′, 4-fluoromethyl-6-methyl-2-thioxo-1,2,3,4-tetrahydro-pyrimidine-5-carboxylic acid 2-trifluoromethyl-benzyl ester] | 6.22 | > 6.00 | –
COc1cc(COC(=O)C2=C(C)NC(=S)NC2)cc(Br)c1OC [Compound 178, 6-methyl-2-thioxo-1,2,3,4-tetrahydro-pyrimidine-5-carboxylic acid 3-bromo-4,5-dimethoxy-benzyl ester] | 5.82 | 5.00 to 6.00 | –
CCOc1cc(COC(=O)C2=C(C)NC(=S)NC2)cc(OCC)c1 [Compound 150, 6-methyl-2-thioxo-1,2,3,4-tetrahydro-pyrimidine-5-carboxylic acid 3,5-diethoxy-benzyl ester] | 6.00 | > 6.00 | –

Compound | pIC50 [1] | pIC50 [2] | pIC50 (concentration at which 50% of HCV proteins was decreased, Table 2, read-out: IC50)
CC1=C(C(=O)OCc2ccccc2[N+](=O)[O-])CNC(=S)N1 [Compound 183, 6-methyl-2-thioxo-1,2,3,4-tetrahydro-pyrimidine-5-carboxylic acid 2-nitro-benzyl ester] | 5.60 | 5.00 to 6.00 | –
CC1=C(C(=O)OCCc2c(F)cc(F)cc2F)C(CO)NC(=S)N1 (stereo not shown) [53″, 4-hydroxymethyl-6-methyl-2-thioxo-1,2,3,4-tetrahydro-pyrimidine-5-carboxylic acid 2-(2,4,6-trifluoro-phenyl)-ethyl ester] | 5.15 | 5.00 to 6.00 | –
COc1ccc(CCCOC(=O)C2=C(C)NC(=S)NC2CF)cc1 (stereo not shown) [43′, 4-fluoromethyl-6-methyl-2-thioxo-1,2,3,4-tetrahydro-pyrimidine-5-carboxylic acid 3-(4-methoxy-phenyl)-propyl ester] | 5.74 | 5.00 to 6.00 | –
COc1ccc(COC(=O)C2=C(C)NC(=S)NC2)c(F)c1 [Compound 177, 6-methyl-2-thioxo-1,2,3,4-tetrahydro-pyrimidine-5-carboxylic acid 2-fluoro-4-methoxy-benzyl ester] | 5.60 | 5.00 to 6.00 | –
CC1=C(C(=O)OC(c2ccccc2)c2ccccc2C)CNC(=S)N1 (stereo not shown) [Compound 57, 6-methyl-2-thioxo-1,2,3,4-tetrahydro-pyrimidine-5-carboxylic acid phenyl-o-tolyl-methyl ester] | 5.46 | 5.00 to 6.00 | –
COc1ccc(CCCOC(=O)C2=C(C)NC(=S)NC2)cc1 [Compound 88, 6-methyl-2-thioxo-1,2,3,4-tetrahydro-pyrimidine-5-carboxylic acid 3-(4-methoxy-phenyl)-propyl ester] | 6.15 | > 6.00 | –
COC1=C(C(=O)OCc2ccccc2)CNC(=S)N1 [Compound 63, 6-methoxy-2-thioxo-1,2,3,4-tetrahydro-pyrimidine-5-carboxylic acid benzyl ester] | < 4.00 | < 4.70 | –
CC1=C(C(=O)OCCCc2ccsc2F)C(CO)NC(=S)N1 (stereo not shown) [13″, 4-hydroxymethyl-6-methyl-2-thioxo-1,2,3,4-tetrahydro-pyrimidine-5-carboxylic acid 3-(2-fluoro-thiophen-3-yl)-propyl ester] | 5.28 | 5.00 to 6.00 | –
CC1=C(C(=O)OCc2ccc3c(c2)OCO3)CNC(=S)N1 [Compound 9, 6-methyl-2-thioxo-1,2,3,4-tetrahydro-pyrimidine-5-carboxylic acid benzo[1,3]dioxol-5-ylmethyl ester] | 5.40 | 5.00 to 6.00 | –
C#CC(C)OCC#CCOC(=O)C1=C(C)NC(=S)NC1 (stereo not shown) [Compound 246, 6-methyl-2-thioxo-1,2,3,4-tetrahydro-pyrimidine-5-carboxylic acid 4-(1-methyl-prop-2-inyloxy)-but-2-inyl ester] | – | – | 4.17
CC1=C(C(=O)OCc2cc(F)cc(F)c2)C(CF)NC(=S)N1 (stereo not shown) [69′, 4-fluoromethyl-6-methyl-2-thioxo-1,2,3,4-tetrahydro-pyrimidine-5-carboxylic acid 3,5-difluoro-benzyl ester] | 5.52 | 5.00 to 6.00 | –
CC1=C(C(=O)OCCc2ccsc2)[C@@H](CF)NC(=S)N1 [25′, (S)-4-fluoromethyl-6-methyl-2-thioxo-1,2,3,4-tetrahydro-pyrimidine-5-carboxylic acid 2-thiophen-3-yl-ethyl ester] | 5.31 | 5.00 to 6.00 | –
CC1=C(C(=O)OCc2sccc2-n2cccc2)CNC(=S)N1 [Compound 220, 6-methyl-2-thioxo-1,2,3,4-tetrahydro-pyrimidine-5-carboxylic acid 3-pyrrol-1-yl-thiophen-2-ylmethyl ester] | 6.10 | > 6.00 | –
CSc1ccc(COC(=O)C2=C(C)NC(=S)NC2)s1 [Compound 217, 6-methyl-2-thioxo-1,2,3,4-tetrahydro-pyrimidine-5-carboxylic acid 5-methylsulfanyl-thiophen-2-ylmethyl ester] | 5.15 | 5.00 to 6.00 | –
CC1=C(C(=O)OCc2ccco2)CNC(=S)N1 [Compound 12, 6-methyl-2-thioxo-1,2,3,4-tetrahydro-pyrimidine-5-carboxylic acid furan-2-ylmethyl ester] | 4.66 | 4.70 to 5.00 | –
COCCN(C)c1ccc(CCOC(=O)C2=C(C)NC(=S)NC2)cc1 [Compound 209, 6-methyl-2-thioxo-1,2,3,4-tetrahydro-pyrimidine-5-carboxylic acid 2-{4-[(2-methoxy-ethyl)-methyl-amino]-phenyl}-ethyl ester] | > 6.40 | > 6.00 | –
CC1=C(C(=O)OCC=Cc2ccccc2)CNC(=S)N1 [Compound 54, 6-methyl-2-thioxo-1,2,3,4-tetrahydro-pyrimidine-5-carboxylic acid 3-phenyl-allyl ester] | > 6.30 | > 6.00 | –
